Source: patent publication EP0728482A2, “Use of hcp specific compounds to enhance erythropoiesis” (SMITHKLINE BEECHAM CORPORATION, priority 1995, dated 1996)

Target: T1, human lck SH2 domain (Homo sapiens, UniProt P06239)
T1 construct: made in house; host or cells: E. coli AR120
Assay: ELISA-based SH2 domain / pY peptide binding assay, lck SH2 domain
Details: inhibition of binding of 0.1 uM biotinylated pY peptide to SH2 domain fusion protein
Experimental: The inhibitory activity of compounds at the different human SH2 domains was determined in vitro using SH2 domains expressed as fusion proteins in E. coli. The SH2 domains used herein were the human forms of the src SH2 domain, Grb2 SH2 domain, lck SH2 domain, fyn SH2 domain, SH-PTP2 SH2 domain, p85 SH2 domain and hcp SH2 domain.
The fusion proteins containing the src, lck and hcp SH2 domains were expressed as the general sequence: DET1-DET2-spacer-ek-SH2, where DET1, DET2, spacer, ek and SH2 are as described below. DET1 ("defined epitope tag 1") (SEQ ID NO: 1) is an 11 amino acid sequence found in the Human Immunodeficiency Virus Type 1 (HIV-1) envelope protein gp120 (or gp160). Monoclonal antibodies to various epitopes of HIV-1 gp120 (or gp 160) are known in the art, see, for example U.S. Patent 5,166,050. One preferred example is monoclonal antibody 178.1 (see, e.g., Thiriart et al., J. Immunol., 143:1832-1836 (1989)), which was prepared by immunization of mice with a yeast-expressed HIV-1 gp160 molecule from strain BH10 (Ratner et al., Nature, 313:277-284 (1985)). This tag was used for detection of expression (by Western blot), for purification of the protein (by affinity chromatography), and for configuring assays in which the fusion protein was captured or immobilized using the 178.1 antibody. […]

T1 sequence (P06239 127-224 limits assumed): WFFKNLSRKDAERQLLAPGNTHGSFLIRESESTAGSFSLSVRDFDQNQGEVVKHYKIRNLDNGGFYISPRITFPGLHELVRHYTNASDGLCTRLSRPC

- IC50: > 300 µM
Structure (SMILES): CCCCCCNC(=O)[C@H]1CC[C@H](CNC(=O)c2ccc(C(=O)c3ccc(C(=O)O)cc3)cc2)CC1 [Compound 6, 4-carboxy-benzophenone-4-carboxamido-trans-4-methyl-cyclohexyl-N-hexyl carboxamide]
